{"source": "patent US20160317654A1", "about": "“COMBINATION THERAPY WITH RAR ALPHA AGONISTS FOR ENHANCING TH1 RESPONSE” (King's College London, priority 2015, published 2016)", "system": "fully committed Th1 cells", "experiment": "Secondary repolarisation of sorted IFN-γ (eYFP+) Th1 cells under Th1 conditions in the presence of RAR inhibitor or vehicle", "format": "cell-based, mouse", "details": "IFN-γ (eYFP+) Th1 cells sorted day 7, restimulated under Th1 conditions for 5 days with LE540 (1 μM) vs vehicle (DMSO)", "description": "Experimental conditions were as follows. Naïve CD4^+CD25^negCD44^loCD62L^hi T-cells were isolated by cell sorting by FACSAria (BD) after enrichment with a CD4^+ T-cell negative selection kit (Miltenyi Biotec). T-cell depleted splenocytes were prepared using a CD3^+ microbead selection kit (Miltenyi Biotec) followed by irradiation at 3000 rad. Naïve CD4+ T-cells were cultured for 3 days with irradiated T-cell-depleted splenocytes at a ratio of 1:5 in the presence of 5 μg/ml of anti-CD3 (145-2C11) under Th0 cell conditions (IL-2 100 IU/ml, anti-IL-4 (11B11) and anti-IFN-γ (XMG 1.2), 10 μg/ml each); Th1 cell conditions (100 IU/ml of IL-2, 10 ng/ml of IL-12, and anti-IL-4); Th2 cell conditions (100 IU/ml of IL-2, 10 ng/ml of IL-4, anti-IL-12 (C17.8), and anti-IFN-γ (XMG 1.2); or Th17 cell conditions, 5 ng/ml TGFβ, 20 ng/ml IL-6, 10 ng/ml IL-1β, anti-IL-4, and anti-IFN-γ). Cells were expanded for an additional 3-4 days. Where indicated, 10 ng/ml IFN-γ or 10 μg/ml anti-IFN-γ was added. In secondary repolarisation assays, where specified, LE540 (1 μM) or DMSO (vehicle control) was added to the media. Cytokines were from R&D. Anti-CD3 was from BioXcell and other antibodies were from BD Biosciences. All cell cultures were performed in complete RPMI containing 10% fetal bovine serum (FBS), 55 µM β-mercaptoethanol, HEPES, non-essential amino acids, glutamine, penicillin and streptomycin.\nFor analysis of cytokine production, cells were restimulated with 100 ng/ml phorbol 12-myristate 13-acetate (PMA) and 500 ng/ml ionomycin in the presence of monensin for 4-5 h at 37° C. in a tissue culture incubator. Cell surface staining was carried out in PBS with 2% FBS. For live cell analysis or cell sorting, dead cells were excluded by staining with SYTOX blue (Invitrogen). […] Data were collected with a LSR Fortessa (BD) and results were analyzed with FlowJo software (Tree Star). […]"}
{"molecule": "CN1c2cc3c(cc2N=C(c2ccc(C(=O)O)cc2)c2ccc4ccccc4c21)C(C)(C)CCC3(C)C", "note": "[LE540]", "values": [{"measurement": "Intracellular IFN-γ expression following PMA and ionomycin stimulation", "setting": "FIG. 12B", "value": "modest reductions in IFN-γ expression"}, {"measurement": "Intracellular expression of RORγt", "setting": "flow cytometry, FIG. 4B", "value": "emergence of cells co-expressing RORγt"}, {"measurement": "Intracellular expression of T-bet", "setting": "flow cytometry, FIG. 4B", "value": "down-regulation of T-bet"}]}
